Like-named read-outs stand apart in the source and are kept apart here. Some results are limits rather than exact numbers.

One data set has as its system β-Receptor. Kind of data set: β-receptor blocking effect: 3H-dihydroalprenolol binding to synaptosome membrane of rat brain. The method, then: Spraque-Dawley male rats having 150 - 200 g body weight were decapitated, and the brains were quickly taken out and, after decortication, frozen at -70°C. After freezing overnight at -70°C, the thawed brain was homogenized with a buffer [0.25 mole sucrose, 5 mmole tris(hydroxymethyl)aminomethane hydrochloride, 1 mmole magnesium chloride, pH 7.4] in an amount of 8 times the weight of the brain. The homogenate was centrifuged at 800 x g for 20 minutes, and the supernatant was centrifuged at 14,000 x g for 14 minutes, the deposit of which was washed three times with the above-mentioned buffer. The deposit finally obtained was suspended again in a buffer of 75 mmole tris(hydroxymethyl)aminomethane and 25 mmole magnesium chloride (pH 7.4) to form a membrane specimen.
To 50 1 of the membrane specimen were added 50 1 of ^3H-dihydroalprenolol (^3H-OHA) and 50 1 of the mixture of the test frug and the buffer, such that the total volume was adjusted to 150 1, and the mixture was incubated at 37°C for 10 minutes.
The reaction was stopped by adding an ice-cooled mixture of 50 mmole tris(hydroxymethyl)aminomethane hydrochloride and 17 mmole magnesium chloride (pH 7.4), and the mixture was filtered under reduced pressure through a Whatman GF/B glassfiber. The filter was washed three times and dried, and a toluene type scintillator was added to measure the radioactivity.
. In the measurement, the amount obtained by subtracting the bondings obtained in the presence of 10^-5 mole propranolol from the total bondings was considered to represent the specific bondings of the S-receptor. In addition, the determination of protein was carried out according to the method of Lowry et al. [Lowry, O.H. et al., J. Biol. Chem., 193, 265-275 (1951)].

Another data set can be described thus: in vivo. Particulars: mouse, ddy male mice, mortality within 1 week.
The subject of a further data set is ddy male mouse. Briefly: Anti-arrhythmic effect: prevention of chloroform-induced ventricular flutter and fibrillation. The class given is in vivo. The conditions noted are these: ip, 0.5 h, read-out: Anti-arrhythmic effect (ED50). The protocol:
When a compound showing an anti-arrhythmic effect is previously administered, such an irregular ventricular appearance is prevented. The compound of this invention was intraperioneally administered in various dosages to the groups of 29 - 40 mice. After 30 minutes the mice were subjected to the inhalation of chloroform, and the preventive ratios of the venticular flutter and fibrillation were measured for respective dosages.

The subject of data set [1] is SHR (spontaneous hypertensive rat). Briefly: Effect on mean blood pressure in conscious spontaneously hypertensive rats. The data set is classed as in vivo. Particulars: for mean blood pressure % Exchange: conscious SHR, mean ±SEM. The text has this:
In order to measure the blood pressure of a SHR (spontaneous hypertensive rat), a polyethylene tube was inserted into an artery to a level of the abdominal aorta through the crural artery, and the other end of the tube was tightly stoppered by a metal rod, extended subcutaneously and exposed out of the body at the posterior of the neck and fixed by suturation to the surrounding skin. The tube was filled with 500 U of heparin.
On the day subsequent to the operation, the blood pressure was measured without anesthetization or restriction using a pressure transducer and continously recorded on a thermal recording system together with the heart rate which was measured by driving a tachometer with the pulse wave of blood pressure.
The test drugs were dissolved in physiological saline and administered using a sound (p.o.)

[2] abbreviates: 10^-5 mole test compound, 10 µM.
The mark [3] stands for this setting: iv, caudal vein, read-out: Acute toxicity (LD50) intra-venous.
The mark [4] stands for this setting: po, in stomach, read-out: Acute toxicity (LD50) in stomach.
Where [5] appears, read: intraperitoneal, chloroform inhalation after 30 minutes, mice.

With `CNCC(O)COc1cccc2c1OS(=O)(=O)CC2` (stereo not drawn) [Example 1, 8-(3-methylamino-2-hydroxypropoxy)-3,4-dihydro-1,2-benzoxathiin-2,2-dioxide], the “β-Receptor blocking effect Inhibition (%)” value with β-Receptor (setting [2]) was found to be 73.9%; in the data set with β-Receptor (10^-6 mole test compound, 1 µM) it was 35.4%.
For orientation: LD50 means the dose at which mortality reaches 50%. What is called ED50 is the dose at which the effect has come halfway, by size or by number of responders. `CC(C)NCC(O)COc1cccc2c1OS(=O)(=O)CC2` (stereo not drawn) [Example 3, 8-(3-isopropylamino-2-hydroxypropoxy)-3,4-dihydro-1,2-benzoxathiin-2,2-dioxide]: the “β-Receptor blocking effect Inhibition (%)” value with β-Receptor (setting [2]) worked out at 91.6%; with β-Receptor (10^-6 mole test compound, 1 µM), 97.6%. Further, the LD50 at 168 h was 68.2 mg/kg in the data set “in vivo” (setting [3]) and greater than 500 mg/kg in the data set “in vivo” (setting [4]). Moreover, the ED50 in the data set on ddy male mouse (setting [5]) worked out at 0.23 mg/kg.
Take `COc1ccc(CCNCC(O)COc2cccc3c2OS(=O)(=O)CC3)cc1OC` (stereo not drawn) [Example 7, 8-[3-(3,4-dimethoxyphenethylamino)-2-hydroxy-propoxy]-3,4-dihydro-1,2-benzoxathiin-2,2-dioxide]: the “β-Receptor blocking effect Inhibition (%)” value worked out at 90.1% with β-Receptor (setting [2]) and 75.2% in the data set on β-Receptor (10^-6 mole test compound, 1 µM).
Turning to `CCC(C)NCC(O)COc1cccc2c1OS(=O)(=O)CC2` (stereo not drawn) [Example 5, 8-(3-sec-butylamino-2-hydroxypropoxy)-3,4-dihydro-1,2-benzoxathiin-2,2-dioxide], the “β-Receptor blocking effect Inhibition (%)” value in the data set with β-Receptor (setting [2]) is reported as 95.3%; in the data set on β-Receptor (10^-6 mole test compound, 1 µM), 83.0%. Further, the 50% lethal dose (LD50) at 168 h in “in vivo” (setting [3]) was 68.2 mg/kg; in “in vivo” (setting [4]), greater than 500 mg/kg. Further, in the data set on ddy male mouse (setting [5]), the ED50 was found to be 1.3 mg/kg.
Consider `CC(C)NCC(O)COc1cccc2ccccc12` (stereo not drawn) [propranolol, reference compound], for which the median effective dose (ED50) with ddy male mouse stood at 2.2 mg/kg.
Take `CCCC(=O)Nc1ccc(OCC(O)CNC(C)C)c(C(C)=O)c1` (stereo not drawn) [acebutolol, reference compound]: the ED50 with ddy male mouse (setting [5]) came out at 47 mg/kg.
In the case of `CN(C)CC(O)COc1cccc2c1OS(=O)(=O)CC2` (stereo not drawn) [Example 2, 8-(3-dimethylamino-2-hydroxypropoxy)-3,4-dihydro-1,2-benzoxathiin-2,2-dioxide], the “β-Receptor blocking effect Inhibition (%)” value was 62.6% with β-Receptor (setting [2]) and 17.1% in the data set on β-Receptor (10^-6 mole test compound, 1 µM).
Regarding `CC(C)(C)NCC(O)COc1cccc2c1OS(=O)(=O)CC2` (stereo not drawn) [Example 4, 8-(3-t-butylamino-2-hydroxypropoxy)-3,4-dihydro-l,2-benzoxathiin-2,2-dioxide], the “β-Receptor blocking effect Inhibition (%)” value came out at 91.4% in the data set with β-Receptor (setting [2]) and 96.3% in the data set with β-Receptor (10^-6 mole test compound, 1 µM). For the same molecule, the LD50 at 168 h is 59.2 mg/kg in “in vivo” (setting [3]) and greater than 500 mg/kg in “in vivo” (setting [4]). For the same molecule, the “mean blood pressure % Exchange” value in data set [1] (0.1 mg/kg p.o., 10 min) is recorded as 6.4 ± 3.5%; in data set [1] (0.1 mg/kg p.o., 20 min), 4.6 ± 3.2%; in data set [1] (0.1 mg/kg p.o., 30 min) it was 4.1 ± 2.6%; in data set [1] (0.1 mg/kg p.o., 60 min), -4.2 ± 3.8%; in data set [1] (0.1 mg/kg p.o., 90 min), -6.5 ± 3.2%; in data set [1] (0.1 mg/kg p.o., 120 min), -7.3 ± 5.9%. Besides, the “mean blood pressure % Exchange” value was -8.9 ± 3.0% in data set [1] (0.1 mg/kg p.o., 3 hr); -13.0 ± 2.5 % in data set [1] (0.1 mg/kg p.o., 4 hr); -14.7 ± 2.5 % in data set [1] (0.1 mg/kg p.o., 5 hr); -14.8 ± 2.4 % in data set [1] (0.1 mg/kg p.o., 6 hr); -2.8 ± 4.2% in data set [1] (0.1 mg/kg p.o., 24 hr); 1.4 ± 1.2% in data set [1] (1 mg/kg p.o., 10 min). Besides, the “mean blood pressure % Exchange” value in data set [1] (1 mg/kg p.o., 20 min) is given as -0.3 ± 1.7%; in data set [1] (1 mg/kg p.o., 30 min), -8.1 ± 2.9 %; in data set [1] (1 mg/kg p.o., 60 min) it was -12.0 ± 4.3 %; in data set [1] (1 mg/kg p.o., 90 min), -10.9 ± 2.8 %; in data set [1] (1 mg/kg p.o., 120 min), -14.5 ± 4.3 %; in data set [1] (1 mg/kg p.o., 3 hr) it was -16.3 ± 4.1 %. The “mean blood pressure % Exchange” value is recorded as -20.0 ± 3.7 % in data set [1] (1 mg/kg p.o., 4 hr); -24.5 ± 4.0 % in data set [1] (1 mg/kg p.o., 5 hr); -24.1 ± 3.3 % in data set [1] (1 mg/kg p.o., 6 hr); -11.5 ± 6.2% in data set [1] (1 mg/kg p.o., 24 hr). Moreover, in data set [1] (result in words, SHR, p.o., after 24 hours), the “duration of hypotensive effect” value is on record as “remains effective even after 24 hours”. The hypotensive effect entry in data set [1] (result in words, SHR, p.o., compared with carteolol) is given as “excellent hypotensive effect at almost the same level as carteolol”. Also, the ED50 in the data set on ddy male mouse (setting [5]) was determined as 0.03 mg/kg.
On to `CC(C)(C)NCC(O)COc1cccc2c1CCC(=O)N2` (stereo not drawn) [carteolol, reference compound], for which the LD50 at 168 h in the data set “in vivo” (setting [3]) was 38 mg/kg. For the same molecule, the “mean blood pressure % Exchange” value in data set [1] (0.1 mg/kg p.o., 10 min) is on record as 1.4 ± 2.1%; in data set [1] (0.1 mg/kg p.o., 20 min), -9.2 ± 4.0%; in data set [1] (0.1 mg/kg p.o., 30 min), -11.3 ± 3.9 %; in data set [1] (0.1 mg/kg p.o., 90 min), -18.1 ± 3.7 %; in data set [1] (0.1 mg/kg p.o., 120 min), -12.7 ± 6.5%; in data set [1] (0.1 mg/kg p.o., 3 hr) it was -15.4 ± 3.3 %. The “mean blood pressure % Exchange” value in data set [1] (0.1 mg/kg p.o., 4 hr) was -15.1 ± 3.7 %; in data set [1] (0.1 mg/kg p.o., 5 hr), -18.8 ± 1.3 %; in data set [1] (0.1 mg/kg p.o., 6 hr), -20.8 ± 1.7 %; in data set [1] (0.1 mg/kg p.o., 24 hr) it was -2.1 ± 2.5%; in data set [1] (1 mg/kg p.o., 10 min), 2.5 ± 3.2%; in data set [1] (1 mg/kg p.o., 20 min) it was -1.4 ± 2.6%. Moreover, the “mean blood pressure % Exchange” value in data set [1] (1 mg/kg p.o., 30 min) is -5.1 ± 3.6%; in data set [1] (1 mg/kg p.o., 60 min), -11.7 ± 3.3 %; in data set [1] (1 mg/kg p.o., 90 min), -14.7 ± 3.6 %; in data set [1] (1 mg/kg p.o., 120 min), -23.8 ± 3.0 %; in data set [1] (1 mg/kg p.o., 3 hr), -23.1 ± 4.8 %; in data set [1] (1 mg/kg p.o., 4 hr), -24.4 ± 4.2 %. Also, the “mean blood pressure % Exchange” value is -24.7 ± 4.7 % in data set [1] (1 mg/kg p.o., 5 hr); -21.3 ± 4.2 % in data set [1] (1 mg/kg p.o., 6 hr); -2.1 ± 4.5% in data set [1] (1 mg/kg p.o., 24 hr). Further, the ED50 in the data set with ddy male mouse (setting [5]) was found to be 400 mg/kg.
As for `CC(C)CNCC(O)COc1cccc2c1OS(=O)(=O)CC2` (stereo not drawn) [Example 6, 8-(3-isobutylamino-2-hydroxypropoxy)-3,4-dihydro-l,2-benzoxathiin-2,2-dioxide], the “β-Receptor blocking effect Inhibition (%)” value with β-Receptor (setting [2]) was determined as 81.9%; in the data set with β-Receptor (10^-6 mole test compound, 1 µM) it was 41.7%.

The values are drawn from patent EP0156224A2, “Novel benzoxathiin derivative, process for preparing them and pharmaceutical composition” (SUNTORY LIMITED, priority 1984, dated 1985).
